# Source: patent US20170298055A1, “sGC STIMULATORS” (IRONWOOD PHARMACEUTICALS, INC., priority 2014, published 2017)
# How the values were obtained:
# [1] = system: NO-deficient rats; conditions: cited from earlier work
# [2] = system: obese mice; conditions: cited from earlier work
# [3] = system: Guinea pig tracheal smooth muscle; experiment: Electrical field stimulated guinea pig tracheal smooth muscle contraction (ex vivo); conditions: sub-maximal EFS, cumulative dose response curve, three animals pooled; read-out: IC50, inhibition of EFS-induced tracheal smooth muscle contraction
# From the text: On each experimental day, a guinea pig is killed by exposure to a rising concentration of CO2 and the trachea removed. The trachea is cleaned of extraneous tissue and cut open longitudinally in a line opposite the muscle, opened out and cut into strips 2-3 cartilage rings wide. A cotton loop is attached to one end of each tracheal strip and a length of cotton to the other end. Tracheal strips are then suspended between two platinum electrodes, using tissue holders, in a Myobath system (World Precision Instruments Stevenage, UK). […] Tissues are washed with Kreb's buffer and stimulated using the previously determined sub-maximal voltage for 1 hour to establish a stable baseline contraction prior to assessment of compound activity.
# A cumulative dose response curve (DRC) to each test substance is then performed and changes in smooth muscle contraction measured. The effect of each test substance in each experiment is expressed as a percentage inhibition of the baseline contraction, normalized to the relevant vehicle controls. […] The data from all three experiments are pooled, the DRC plotted, and the test substance potency and efficacy determined.
compound,measurement,setting,value
Nc1nc(-c2nn(Cc3ccccc3F)c3ncccc23)ncc1C1CC1 [BAY-2272],effect on bladder dysfunction,[1],protective effects
O=C(O)CCCCN(CCc1cc(F)ccc1OCc1ccc(-c2ccc(C(F)(F)F)cc2)cc1)Cc1ccc(C(=O)O)cc1 [BAY 60-2770],effect on overactive bladder,[2],ameliorates overactive bladder in obese mice
CC(C)[N+]1(C)[C@@H]2CC[C@H]1CC(OC(=O)C(CO)c1ccccc1)C2 (stereo partly drawn) [Ipratropium bromide],IC50,[3],0.86 nM
